Measurements from patent US20260285850A1, “SUBSTITUTED OXAZOLIDINONES AND IMIDAZOLINONES AS HERBICIDES” (FMC CORPORATION, priority 2023, published 2026).

Legend:
Format in all cases: in vivo
[1] = tested on: barnyardgrass (Echinochloa crus-galli); assay: Test A preemergence soil spray, visual injury rating 0-100; conditions: 10 days, 0 = no effect, 100 = complete control
Source text: (§1) Seeds of plant species selected from barnyardgrass (Echinochloa crus-galli), blackgrass (Alopecurus myosuroides), corn (Zea mays), foxtail, giant (giant foxtail, Setaria faberi), green foxtail (Setaria viridis), goosegrass (Eleusine indica), kochia (Bassia scoparia), oat, wild (wild oat, Avena fatua), palmer (palmer amaranth, palmer pigweed, Amaranthus palmeri), ragweed (common ragweed, Ambrosia artemisiifolia), ryegrass, Italian (italian ryegrass, Lolium multiflorum), soybean (Glycine max) and wheat (Triticum aestivum) were planted into a blend of loam soil and sand and treated preemergence with a directed soil spray using test chemicals formulated in a non-phytotoxic solvent mixture which included a surfactant.
(§2) At the same time, plants selected from these crops and weed species and also galium (catchweed bedstraw, Galium aparine) and horseweed (Erigeron canadensis) were planted in pots containing the same blend of loam soil and sand and treated with postemergence applications of test chemicals formulated in the same manner. Plants ranged in height from 2 to 10 cm and were in the one- to two-leaf stage for the postemergence treatment. Treated plants and untreated controls were maintained in a greenhouse for 10 days, after which time all treated plants were compared to untreated controls and visually evaluated for injury. Plant response ratings, summarized in Table A, are based on a 0 to 100 scale where 0 is no effect and 100 is complete control. A dash (-) response means no test result.

[2] = tested on: blackgrass (Alopecurus myosuroides); assay: as above; conditions: 10 days, 0 = no effect, 100 = complete control
Source text: as §1, §2

[3] = tested on: corn (Zea mays); assay: as above; conditions: 10 days, 0 = no effect, 100 = complete control
Source text: as §1, §2

[4] = tested on: green foxtail (Setaria viridis); assay: as above; conditions: 10 days, 0 = no effect, 100 = complete control
Source text: as §1, §2

[5] = tested on: kochia (Bassia scoparia); assay: as above; conditions: 10 days, 0 = no effect, 100 = complete control
Source text: as §1, §2

[6] = tested on: oat, wild (wild oat, Avena fatua); assay: as above; conditions: 10 days, 0 = no effect, 100 = complete control
Source text: as §1, §2

[7] = tested on: palmer (palmer amaranth, palmer pigweed, Amaranthus palmeri); assay: as above; conditions: 10 days, 0 = no effect, 100 = complete control
Source text: as §1, §2

[8] = tested on: ragweed (common ragweed, Ambrosia artemisiifolia); assay: as above; conditions: 10 days, 0 = no effect, 100 = complete control
Source text: as §1, §2

[9] = tested on: ryegrass, Italian (italian ryegrass, Lolium multiflorum); assay: as above; conditions: 10 days, 0 = no effect, 100 = complete control
Source text: as §1, §2

[10] = tested on: soybean (Glycine max); assay: as above; conditions: 10 days, 0 = no effect, 100 = complete control
Source text: as §1, §2

[11] = tested on: wheat (Triticum aestivum); assay: as above; conditions: 10 days, 0 = no effect, 100 = complete control
Source text: as §1, §2

[12] = tested on: barnyardgrass (Echinochloa crus-galli); assay: Test A postemergence application, visual injury rating 0-100; conditions: 10 days
Source text: as §1, §2

[13] = tested on: blackgrass (Alopecurus myosuroides); assay: as above; conditions: 10 days
Source text: as §1, §2

[14] = tested on: corn (Zea mays); assay: as above; conditions: 10 days
Source text: as §1, §2

[15] = tested on: green foxtail (Setaria viridis); assay: as above; conditions: 10 days
Source text: as §1, §2

[16] = tested on: horseweed (Erigeron canadensis); assay: as above; conditions: 10 days
Source text: as §1, §2

[17] = tested on: kochia (Bassia scoparia); assay: as above; conditions: 10 days
Source text: as §1, §2

[18] = tested on: oat, wild (wild oat, Avena fatua); assay: as above; conditions: 10 days
Source text: as §1, §2

[19] = tested on: palmer (palmer amaranth, palmer pigweed, Amaranthus palmeri); assay: as above; conditions: 10 days
Source text: as §1, §2

[20] = tested on: ragweed (common ragweed, Ambrosia artemisiifolia); assay: as above; conditions: 10 days
Source text: as §1, §2

[21] = tested on: ryegrass, Italian (italian ryegrass, Lolium multiflorum); assay: as above; conditions: 10 days
Source text: as §1, §2

[22] = tested on: soybean (Glycine max); assay: as above; conditions: 10 days
Source text: as §1, §2

[23] = tested on: wheat (Triticum aestivum); assay: as above; conditions: 10 days
Source text: as §1, §2

[24] = 31 g ai/ha, postemergence, 0 = no effect, 100 = complete control
[25] = Postemergence, 125 g ai/ha, 0 is no effect, 100 is complete control

## CONC(=O)C1CC(NC(=O)C2(C)CN(c3cc(F)cc(F)c3)C(=O)O2)CO1 (stereo not shown) [Compound 41]
[1]; 31 g ai/ha
  Barnyardgrass plant response rating (0-100): 0
[1]; 125 g ai/ha
  Barnyardgrass plant response rating (0 to 100 scale): 0
[2]; 31 g ai/ha
  Blackgrass plant response rating (0-100): 0
[2]; 125 g ai/ha
  Blackgrass plant response rating (0 to 100 scale): 0
[3]; 31 g ai/ha
  Corn plant response rating (0-100): 0
[3]; 125 g ai/ha
  Corn plant response rating (0 to 100 scale): 0
[4]; 31 g ai/ha
  Foxtail, Green plant response rating (0-100): 0
[4]; 125 g ai/ha
  Foxtail, Green plant response rating (0 to 100 scale): 0
[5]; 31 g ai/ha
  Kochia plant response rating (0-100): 0
[5]; 125 g ai/ha
  Kochia plant response rating (0 to 100 scale): 0
[6]; 31 g ai/ha
  Oat, Wild plant response rating (0-100): 0
[6]; 125 g ai/ha
  Oat, Wild plant response rating (0 to 100 scale): 0
[7]; 31 g ai/ha
  Amaranth, Palmer plant response rating (0-100): 0
[7]; 125 g ai/ha
  Amaranth, Palmer plant response rating (0 to 100 scale): 0
[8]; 31 g ai/ha
  Ragweed plant response rating (0-100): 0
[8]; 125 g ai/ha
  Ragweed plant response rating (0 to 100 scale): 0
[9]; 31 g ai/ha
  Ryegrass, Italian plant response rating (0-100): 0
[9]; 125 g ai/ha
  Ryegrass, Italian plant response rating (0 to 100 scale): 0
[10]; 31 g ai/ha
  Soybean plant response rating (0-100): 0
[10]; 125 g ai/ha
  Soybean plant response rating (0 to 100 scale): 0
[11]; 31 g ai/ha
  Wheat plant response rating (0-100): 0
[11]; 125 g ai/ha
  Wheat plant response rating (0 to 100 scale): 0
[12]; [24]
  Barnyardgrass plant response rating (0-100): 0
[12]; [25]
  Barnyardgrass plant response rating (0 to 100 scale): 30
[13]; [24]
  Blackgrass plant response rating (0-100): 0
[13]; [25]
  Blackgrass plant response rating (0 to 100 scale): 90
[14]; [24]
  Corn plant response rating (0-100): 0
[14]; [25]
  Corn plant response rating (0 to 100 scale): 0
[15]; [24]
  Foxtail, Green plant response rating (0-100): 20
[15]; [25]
  Foxtail, Green plant response rating (0 to 100 scale): 30
[16]; [24]
  Horseweed plant response rating (0-100): 0
[16]; [25]
  Horseweed plant response rating (0 to 100 scale): 0
[17]; [24]
  Kochia plant response rating (0-100): 0
[17]; [25]
  Kochia plant response rating (0 to 100 scale): 0
[18]; [24]
  Oat, Wild plant response rating (0-100): 10
[18]; [25]
  Oat, Wild plant response rating (0 to 100 scale): 40
[19]; [24]
  Amaranth, Palmer plant response rating (0-100): 0
[19]; [25]
  Amaranth, Palmer / Pigweed, Palmer plant response rating (0 to 100 scale): 0
[20]; [24]
  Ragweed plant response rating (0-100): 0
[20]; [25]
  Ragweed plant response rating (0 to 100 scale): 0
[21]; [24]
  Ryegrass, Italian plant response rating (0-100): 0
[21]; [25]
  Ryegrass, Italian plant response rating (0 to 100 scale): 50
[22]; [24]
  Soybean plant response rating (0-100): 0
[22]; [25]
  Soybean plant response rating (0 to 100 scale): 0
[23]; [24]
  Wheat plant response rating (0-100): 20
[23]; [25]
  Wheat plant response rating (0 to 100 scale): 80
